Measured values as given in PMC4355294, “The Ingenious Structure of Central Rotor Apparatus in VoV1; Key for Both Complex Disassembly and Energy Coupling between V1 and Vo” (PLoS ONE, 2015).

Key:
V1-H.s-DF = test system: T1, V1-H.s-DF; experiment: enzyme-coupled ATP regenerating ATPase assay, Michaelis-Menten fit; type: biochemical, Thermus thermophilus; details: 25°C; isolated V1
T1 construct: gene atpA
Excerpt: enzyme-coupled ATP regenerating ATPase assay, Michaelis-Menten fit on V1-H.s-DF

V1-E.h-DF = test system: T2, V1-E.h-DF; experiment: as above; type: biochemical, Thermus thermophilus; details: 25°C; isolated V1
T2 construct: gene atpA
Excerpt: enzyme-coupled ATP regenerating ATPase assay, Michaelis-Menten fit on V1-E.h-DF

Km (V1-H.s-DF): 480 ± 40 µM
Km (V1-E.h-DF): 760 ± 40 µM
SMILES: Nc1ncnc2c1ncn2[C@@H]1O[C@H](COP(=O)(O)OP(=O)(O)OP(=O)(O)O)[C@@H](O)[C@H]1O [ATP]
